Data taken from article PMC5654968 (NPJ Systems Biology and Applications, 2017).
Where two headings read alike, the source gives them in different places.

Format: in vivo, rat
Description: Distilled water and saline were administered as vehicle to rats in each control group. […] Plasma cytokine levels were measured by ELISA or multiplex immunoassay; common metabolites and lipid mediators were analyzed by GC-MS/MS and LC-MS/MS, respectively.
Pathway maps of lipid mediators were created by using CellDesigner 4.4 software (http://www.celldesigner.org). We evaluated the effects of the treatments on specific lipid mediators and categorized them according to COX, CYP and LOX pathways by Fisher’s exact test. The proinflammatory and anti-inflammatory indices were analyzed as described by Tam et al. with modification.[22]

[1] = PM/P (polyI:C+maoto vs polyI:C), 2h
[2] = PM/P (polyI:C+maoto vs polyI:C), 4h
[3] = first value of an incomplete line, time (2h or 4h) not assignable

Row | SMILES | log2FC of plasma level (M/C (maoto vs control), 2h) | log2FC of plasma level (M/C (maoto vs control), 4h) | log2FC of plasma level (P/C (polyI:C vs control), 2h) | log2FC of plasma level (P/C (polyI:C vs control), 4h) | log2FC of plasma level [1] | log2FC of plasma level [2] | log2FC of plasma level | log2FC of plasma level [3]
1 | CC/C=C\C/C=C\C/C=C\C/C=C\C/C=C\CCCC(=O)O [EPA, eicosapentaenoic acid] | 0.56 | -0.10 | 0.28 | -0.05 | 0.04 | 0.03 |  | 
2 | CCCCC/C=C\C/C=C\CC1OC1C/C=C\CCCC(=O)O (stereo not shown) [8,9-EET] | -0.23 | -0.33 | -0.32 | 0.06 | 0.27 | -0.66 |  | 
3 | CCCCC/C=C\C[C@@H]1[C@H](/C=C/C(O)CCCC(=O)O)[C@@H](O)C[C@H]1O (stereo partly drawn) [5-iPF2α-VI] | -0.16 | -0.25 | -0.73 | 0.38 | 0.75 | -0.41 |  | 
4 | CCCCC[C@H](O)/C=C/[C@H]1OC(O)C[C@H](O)[C@@H]1C/C=C\CCCC(=O)O (stereo partly shown) [TXB2] | 1.36 | -0.87 | 0.70 | 0.28 | 0.92 | -0.46 |  | 
5 | CC/C=C\C/C=C\C/C=C\CC(O)/C=C/C=C\C/C=C\CCC(=O)O (stereo not shown) [11-HDoHE] | 0.35 | -0.42 | 0.05 | 0.13 | 0.03 | -0.58 |  | 
6 | CCCCCC(=O)/C=C/C=C\CCCCCCCCCC(=O)O [15-KEDE] | 0.13 | -0.62 | -0.26 | 0.83 | 0.21 | -1.15 |  | 
7 | CCC(O)C(O)C/C=C\C/C=C\C/C=C\C/C=C\CCCC(=O)O (stereo not shown) [17,18-DiHETE] | 0.60 | -0.17 | 0.19 | 0.32 | -0.30 | -0.38 |  | 
8 | CCCCC[C@H](O)/C=C/[C@H]1C(=O)C[C@H](O)[C@@H]1C/C=C\CCCC(=O)O [PGD2] | -0.26 | -0.58 | 0.28 | 0.92 | -0.11 | -1.25 |  | 
9 | CCCCCC(O)/C=C/C=C/C/C=C/CCCC(=O)O (stereo not shown) [12-HHT] | 0.48 | -0.39 | 0.33 | 1.13 | -0.01 | -1.45 |  | 
10 | CCCCCC(=O)CCC1C(O)CC(O)C1CCC(=O)O (stereo not drawn) [13,14-dihydro-15-keto-tetranor-PGF1α] |  |  |  |  |  |  | 0.16 | 0.18
11 | CCCCC/C=C\C/C=C\CC(O)C(O)C/C=C\CCCC(=O)O (stereo not shown) [8,9-DHET] | 0.82 | -0.02 | 0.07 | 0.42 | 0.16 | -0.59 |  | 
12 | CC(O)CCC/C=C\C/C=C\C/C=C\C/C=C\CCCC(=O)O (stereo not shown) [19-HETE] | 1.44 | 0.46 | 0.66 | -0.33 | 0.46 | 0.72 |  | 
13 | CCCCCC(=O)/C=C/[C@@H]1[C@H](C/C=C\CCCC(=O)O)[C@@H](O)C[C@H]1O [8-iso-15-keto-PGF2α] | -0.41 | -0.68 | -0.16 | 1.04 | -0.14 | -0.99 |  | 
14 | CCCCC/C=C\C\C=C/C=C/C=C/[C@@H](SCC(NC(C)=O)C(=O)O)[C@@H](O)CCCC(=O)O (stereo partly shown) [N-acetyl-LTE4] | -1.85 | -1.41 | 2.21 | 1.28 | -2.45 | -0.96 |  | 
15 | CCCCC/C=C\C/C=C\C/C=C\C=C\[C@@H](O)CCCC(=O)O [5-HETE] | -0.06 | -0.47 | -0.07 | 0.39 | 0.01 | -0.73 |  | 
16 | CCCCC/C=C\C/C=C\C/C=C\C/C=C\CCCC(=O)O [AA, arachidonic acid] | 0.19 | -0.02 | 0.12 | 0.14 | -0.10 | -0.04 |  | 

Row | SMILES | log2FC of plasma level (M/C (maoto vs control), 2h) | log2FC of plasma level (M/C (maoto vs control), 4h) | log2FC of plasma level (P/C (polyI:C vs control), 2h) | log2FC of plasma level (P/C (polyI:C vs control), 4h) | log2FC of plasma level [1] | log2FC of plasma level [2] | log2FC of plasma level | log2FC of plasma level [3]
17 | CCCCCC(O)C(O)C/C=C\CCCCCCCC(=O)O (stereo not shown) [12,13-DiHOME] | 0.57 | -0.31 | 0.25 | 0.12 | 0.26 | -0.28 |  | 
18 | CC/C=C\C/C=C\C/C=C\C/C=C\C=C\C(O)C/C=C\CCC(=O)O (stereo not shown) [7-HDoHE] | 0.11 | -0.26 | 0.02 | 0.23 | -0.17 | -0.39 |  | 
19 | CCCCC/C=C\C[C@H](O)/C=C/C=C\C/C=C\CCCC(=O)O [12-HETE] | 1.25 | -0.38 | -0.61 | 0.37 | 1.33 | -0.36 |  | 
20 | CCCCC[C@H](O)/C=C/C=C\C/C=C\C/C=C\CCCC(=O)O [15-HETE] | -0.07 | -0.49 | -0.12 | 0.56 | -0.02 | -0.78 |  | 
21 | CCC(O)/C=C/C=C\C/C=C\C/C=C\C/C=C\C/C=C\CCC(=O)O (stereo not shown) [20-HDoHE] | -0.10 | -0.54 | -0.13 | 0.44 | 0.06 | -0.71 |  | 
22 | CC/C=C\CC(O)/C=C/C=C\CCCCCCCC(=O)O (stereo not shown) [13-HOTrE] | 0.23 | -0.43 | 0.16 | 0.11 | -0.20 | -0.60 |  | 
23 | CCCCC/C=C\C=C\C(O)C/C=C\C/C=C\CCCC(=O)O (stereo not shown) [11-HETE] | 0.15 | -0.41 | 0.23 | 0.38 | 0.04 | -0.66 |  | 
24 | CCCCCC(=O)/C=C/[C@H]1[C@H](O)CC(=O)[C@@H]1C/C=C\CCCC(=O)O [15-keto-PGE2] | -0.28 | -0.61 | -0.15 | 0.64 | -0.07 | -1.08 |  | 
25 | CCC(O)/C=C/C=C\C/C=C\C/C=C\C/C=C\CCCC(=O)O (stereo not shown) [18-HEPE] | 0.08 | -0.59 | 0.02 | 0.07 | -0.16 | -0.77 |  | 
26 | CCCCCC(=O)CC[C@H]1[C@H](O)CC(=O)[C@@H]1C/C=C\CCCC(=O)O [13,14-dihydro-15-keto-PGE2] | 0.22 | 0.13 | 1.01 | 0.22 | -0.04 | 0.42 |  | 
27 | CCCCCC(=O)CCC1C(O)CC(O)C1CCC(=O)O (stereo not drawn) [13,14-dihydro-15-keto-tetranor-PGF1β] | 0.11 | 0.40 | 0.93 | 0.27 | 0.11 | -0.01 |  | 
28 | CCCCC[C@H](O)/C=C/[C@@H]1[C@@H](C/C=C\CCCCCC(=O)O)[C@@H](O)C[C@H]1O [1a1b-dihomo-PGF2α] |  |  |  |  |  |  | 1.56 | 0.80
29 | CC/C=C\C/C=C\C/C=C\C=C\C(O)C/C=C\C/C=C\CCC(=O)O (stereo not shown) [10-HDoHE] | 0.15 | -0.47 | 0.01 | 0.14 | -0.04 | -0.60 |  | 
30 | CCCCC/C=C\C/C=C\C/C=C\CC(O)C(O)CCCC(=O)O (stereo not shown) [5,6-DHET] | 0.42 | -0.54 | -0.14 | 0.11 | 0.23 | -0.71 |  | 
31 | CC/C=C\C/C=C\C/C=C\C/C=C\C/C=C\C/C=C\CCC(=O)O [DHA, docosahexaenoic acid] | 0.46 | -0.10 | 0.22 | 0.09 | 0.05 | 0.03 |  | 
32 | CCCCC/C=C\C=C\[C@H](CCCCCCCC(=O)O)OO [9-HpODE, 9S-hydroperoxy-10E,12Z-octadecadienoic acid] | 2.26 | -2.31 | 0.65 | 0.35 | -0.77 | -1.51 |  | 
